≈ marks a conversion by molar mass, not a printed value.
Tests used:
[1] = biological target: T1, Carnitine O-palmitoyltransferase 1, muscle isoform (Homo sapiens, UniProt Q92523); assay: SUPPLEMENTARY: Inhibition of Carnitine palmitoyltransferase 1, muscle isoform; parameters: species or system Muscle tissue
T1 sequence (Q92523 whole entry): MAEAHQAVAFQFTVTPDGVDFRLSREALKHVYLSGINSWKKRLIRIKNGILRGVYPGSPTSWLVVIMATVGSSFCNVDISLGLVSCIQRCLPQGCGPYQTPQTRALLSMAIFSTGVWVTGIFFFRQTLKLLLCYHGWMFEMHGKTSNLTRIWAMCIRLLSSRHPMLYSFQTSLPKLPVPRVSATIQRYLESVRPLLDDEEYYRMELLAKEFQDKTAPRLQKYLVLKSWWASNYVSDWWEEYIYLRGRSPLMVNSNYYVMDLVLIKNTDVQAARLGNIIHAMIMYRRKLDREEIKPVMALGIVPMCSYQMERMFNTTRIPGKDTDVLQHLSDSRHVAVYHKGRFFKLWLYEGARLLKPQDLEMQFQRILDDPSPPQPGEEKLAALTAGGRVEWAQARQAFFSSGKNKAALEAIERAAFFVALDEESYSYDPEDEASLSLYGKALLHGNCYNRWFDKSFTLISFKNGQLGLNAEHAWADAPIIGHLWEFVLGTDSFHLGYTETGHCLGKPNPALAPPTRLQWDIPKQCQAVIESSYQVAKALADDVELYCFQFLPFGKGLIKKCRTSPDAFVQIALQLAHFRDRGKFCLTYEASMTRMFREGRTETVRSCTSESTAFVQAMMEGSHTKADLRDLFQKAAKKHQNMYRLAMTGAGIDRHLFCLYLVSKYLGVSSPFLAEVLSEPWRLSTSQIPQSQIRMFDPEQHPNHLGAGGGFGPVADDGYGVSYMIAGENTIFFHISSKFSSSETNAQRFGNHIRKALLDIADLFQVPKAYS

[2] = biological target: T2, Carnitine O-palmitoyltransferase 2, mitochondrial (Homo sapiens, UniProt P23786); assay: (§1) SUPPLEMENTARY: Inhibition of Carnitine palmitoyltransferase 2
T2 sequence (P23786 whole entry): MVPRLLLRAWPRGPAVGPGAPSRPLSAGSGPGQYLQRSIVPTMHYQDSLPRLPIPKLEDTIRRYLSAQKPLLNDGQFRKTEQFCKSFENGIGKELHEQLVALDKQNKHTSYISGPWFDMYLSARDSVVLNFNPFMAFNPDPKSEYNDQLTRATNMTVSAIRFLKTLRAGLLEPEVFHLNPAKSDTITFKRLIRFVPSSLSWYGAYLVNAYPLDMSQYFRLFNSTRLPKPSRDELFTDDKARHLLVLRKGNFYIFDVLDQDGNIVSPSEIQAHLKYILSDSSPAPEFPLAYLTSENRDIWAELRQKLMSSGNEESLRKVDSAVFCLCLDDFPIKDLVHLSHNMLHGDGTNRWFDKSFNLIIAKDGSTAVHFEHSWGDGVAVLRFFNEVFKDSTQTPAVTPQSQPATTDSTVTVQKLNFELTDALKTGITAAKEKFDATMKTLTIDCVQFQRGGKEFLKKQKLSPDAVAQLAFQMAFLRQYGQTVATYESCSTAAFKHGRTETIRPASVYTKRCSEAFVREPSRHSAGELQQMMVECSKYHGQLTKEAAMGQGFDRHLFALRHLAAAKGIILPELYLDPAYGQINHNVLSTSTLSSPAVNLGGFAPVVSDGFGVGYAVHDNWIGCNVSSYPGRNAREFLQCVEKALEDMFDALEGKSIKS

[3] = biological target: T3, Carnitine O-palmitoyltransferase 2, mitochondrial (Rattus norvegicus, UniProt P18886); assay: as §1
T3 sequence (P18886 whole entry): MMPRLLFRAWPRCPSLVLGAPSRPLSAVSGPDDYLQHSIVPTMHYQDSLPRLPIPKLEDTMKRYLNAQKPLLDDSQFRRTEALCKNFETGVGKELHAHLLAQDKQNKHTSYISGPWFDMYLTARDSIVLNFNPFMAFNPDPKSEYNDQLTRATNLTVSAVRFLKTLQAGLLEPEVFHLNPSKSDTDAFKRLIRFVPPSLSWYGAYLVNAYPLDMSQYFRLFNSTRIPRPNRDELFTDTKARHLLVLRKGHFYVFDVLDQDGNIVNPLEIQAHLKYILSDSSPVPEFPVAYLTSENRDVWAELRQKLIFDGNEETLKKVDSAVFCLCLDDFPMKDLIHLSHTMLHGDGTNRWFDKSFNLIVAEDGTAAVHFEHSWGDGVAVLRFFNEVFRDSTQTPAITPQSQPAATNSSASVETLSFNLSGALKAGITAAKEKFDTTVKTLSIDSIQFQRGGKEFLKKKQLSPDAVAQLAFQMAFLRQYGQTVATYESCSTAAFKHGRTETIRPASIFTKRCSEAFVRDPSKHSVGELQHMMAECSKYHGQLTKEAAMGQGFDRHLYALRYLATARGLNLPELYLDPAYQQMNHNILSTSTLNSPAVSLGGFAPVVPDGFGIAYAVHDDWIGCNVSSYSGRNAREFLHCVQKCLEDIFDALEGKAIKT

[4] = biological target: T4, Carnitine O-palmitoyltransferase 1, liver isoform (Homo sapiens, UniProt P50416); assay: (§2) SUPPLEMENTARY: Inhibition of Carnitine palmitoyltransferase 1, liver isoform
T4 sequence (P50416 whole entry): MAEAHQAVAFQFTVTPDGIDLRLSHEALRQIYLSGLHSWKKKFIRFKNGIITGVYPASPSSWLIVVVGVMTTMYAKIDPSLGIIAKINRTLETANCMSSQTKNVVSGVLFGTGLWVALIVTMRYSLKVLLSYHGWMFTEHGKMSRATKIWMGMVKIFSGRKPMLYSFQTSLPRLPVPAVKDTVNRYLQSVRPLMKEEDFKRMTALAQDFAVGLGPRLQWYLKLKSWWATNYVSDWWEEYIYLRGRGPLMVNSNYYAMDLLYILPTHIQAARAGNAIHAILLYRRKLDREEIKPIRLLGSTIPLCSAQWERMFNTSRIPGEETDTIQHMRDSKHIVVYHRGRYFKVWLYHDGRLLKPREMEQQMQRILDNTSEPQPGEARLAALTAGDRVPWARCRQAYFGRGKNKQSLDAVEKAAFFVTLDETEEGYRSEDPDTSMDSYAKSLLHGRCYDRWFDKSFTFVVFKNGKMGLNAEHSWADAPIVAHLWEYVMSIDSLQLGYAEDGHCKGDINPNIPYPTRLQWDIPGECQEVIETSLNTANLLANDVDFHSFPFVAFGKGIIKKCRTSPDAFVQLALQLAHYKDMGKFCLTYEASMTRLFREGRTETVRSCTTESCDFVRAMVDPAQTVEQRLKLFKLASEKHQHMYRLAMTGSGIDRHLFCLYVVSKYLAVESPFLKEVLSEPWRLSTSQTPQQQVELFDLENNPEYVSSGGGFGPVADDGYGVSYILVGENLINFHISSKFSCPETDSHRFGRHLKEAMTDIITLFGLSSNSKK

[5] = biological target: T5, Carnitine O-palmitoyltransferase 1, liver isoform (Rattus norvegicus, UniProt P32198); assay: as §2
T5 sequence (P32198 whole entry): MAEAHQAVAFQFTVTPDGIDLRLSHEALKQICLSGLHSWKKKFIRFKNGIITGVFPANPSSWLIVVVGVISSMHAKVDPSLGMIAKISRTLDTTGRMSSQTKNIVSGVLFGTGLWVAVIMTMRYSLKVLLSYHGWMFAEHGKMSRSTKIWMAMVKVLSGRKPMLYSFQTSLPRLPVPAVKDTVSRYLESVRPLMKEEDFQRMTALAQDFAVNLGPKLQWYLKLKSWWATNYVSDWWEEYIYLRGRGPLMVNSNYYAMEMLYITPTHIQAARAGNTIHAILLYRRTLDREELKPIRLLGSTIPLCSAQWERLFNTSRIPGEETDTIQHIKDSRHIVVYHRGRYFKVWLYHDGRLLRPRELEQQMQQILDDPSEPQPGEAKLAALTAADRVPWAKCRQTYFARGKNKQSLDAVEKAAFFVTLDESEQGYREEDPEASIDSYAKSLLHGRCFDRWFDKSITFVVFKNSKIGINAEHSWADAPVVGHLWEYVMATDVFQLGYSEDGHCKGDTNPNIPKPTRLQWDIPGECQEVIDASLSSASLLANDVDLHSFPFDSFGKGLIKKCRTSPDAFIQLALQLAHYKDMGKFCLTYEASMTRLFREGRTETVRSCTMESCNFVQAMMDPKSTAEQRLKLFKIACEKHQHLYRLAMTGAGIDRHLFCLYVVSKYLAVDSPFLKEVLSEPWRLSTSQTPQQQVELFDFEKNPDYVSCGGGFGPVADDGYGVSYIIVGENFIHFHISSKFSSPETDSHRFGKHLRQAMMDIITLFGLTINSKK

[6] = SUPPLEMENTARY: Lyophilisation Solubility Assay (LYSA); type: physicochemical; conditions: read-out: Kinetic_solubility
[7] = SUPPLEMENTARY: Lipophilicity (log D) Determination by high-throughput shake-flask; type: physicochemical; conditions: octanol/water
[8] = SUPPLEMENTARY: PAMPA permeability assay; type: physicochemical; conditions: read-out: Permeability

IC50 [1]: 5650 nM
IC50 [2]: > 100000 nM
IC50 [3]: > 100000 nM
IC50 [4]: 218 nM
IC50 [5]: 144 nM
solubility kinetic [6]: 558 µg/mL (≈ 1030 µM)
logD [7]: -0.79
Papp [8]: 0.03 ×10⁻⁶ cm/s
Compound: COc1ccc(Cl)cc1S(=O)(=O)N1CCOc2c(Cl)cc(C(=O)Nc3ccn(CC(=O)O)n3)cc21

Source: ChEMBL document CHEMBL3431459, “Roche carnitine palmitoyltransferase modulator screening data (supplementary data associated with the publication CHEMBL2216752)”
